How the values were obtained:
Format in all cases: in vivo
[1] = tested on: lambsquarters (Chenopodium album); experiment: Test E pre-/postemergence greenhouse test, plant response rating 0-100; conditions: Preemergence, scale 0 to 100
Outline: (§1)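 Rated visually against controls 14-21 days after treatment on a 0-100 scale (100 = complete control). Pre- and postemergence sprays used a non-phytotoxic solvent mixture with surfactant. Preemergence seeds were in silt loam; postemergence plants were in peat-based medium at the 1- to 4-leaf stage (2-18 cm).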

[2] = tested on: nightshade (eastern black nightshade, Solanum ptycanthum); experiment: as above; conditions: Preemergence, scale 0 to 100
Outline: as §1

[3] = tested on: lambsquarters (Chenopodium album); experiment: Test D postemergence controlled growth environment test, plant response rating 0-100
Source text: (§2) Seeds of plant species selected from bluegrass (annual bluegrass, Poa annua), blackgrass (Alopecurus myosuroides), canarygrass (Phalaris minor), chickweed (common chickweed, Stellaria media), galium (catchweed bedstraw, Galium aparine), downy bromegrass (Bromus tectorum), field violet (Viola arvensis), green foxtail (Setaria viridis), deadnettle (henbit deadnettle, Lamium amplexicaule), Italian ryegrass (Lolium multiflorum), kochia (Kochia scoparia), lambsquarters (Chenopodium album), oilseed rape (Brassica napus), pigweed (Amaranthus retroflexus), Russian thistle (Salsola kali), spring barley (Hordeum vulgare), spring wheat (Triticum aestivum), wild buckwheat (Polygonum convolvulus), wild mustard (Sinapis arvensis), wild oat (Avena fatua), windgrass (Apera spica-venti), winter barley (Hordeum vulgare), and winter wheat (Triticum aestivum) were planted in pots containing Redi-Earth® planting medium (Scotts Company, 14111 Scottslawn Road, Marysville, Ohio 43041) comprising spaghnum peat moss, vermiculite, wetting agent and starter nutrients and treated with postemergence applications of test chemicals formulated in a non-phytotoxic solvent mixture which included a surfactant. Plants ranged in height from 2 to 18 cm (1- to 4-leaf stage). Treated plants and controls were maintained in a controlled growth environment for 14 days after which time all species were compared to controls and visually evaluated. Plant response ratings, summarized in Table D, are based on a scale of 0 to 100 where 0 is no effect and 100 is complete control. A dash (-) response means no test result.

[4] = tested on: windgrass (Apera spica-venti); experiment: as above
Source text: as §2

[5] = tested on: Russian thistle (Salsola kali); experiment: as above
Source text: as §2

[6] = tested on: spring wheat (Triticum aestivum); experiment: as above
Source text: as §2

[7] = tested on: blackgrass (Alopecurus myosuroides); experiment: as above
Source text: as §2

[8] = tested on: Italian ryegrass (Lolium multiflorum); experiment: as above
Source text: as §2

[9] = tested on: pigweed (Amaranthus retroflexus); experiment: as above
Source text: as §2

[10] = tested on: spring barley (Hordeum vulgare); experiment: as above
Source text: as §2

[11] = tested on: bluegrass (annual bluegrass, Poa annua); experiment: as above
Source text: as §2

[12] = tested on: wild mustard (Sinapis arvensis); experiment: as above
Source text: as §2

[13] = tested on: wild oat (Avena fatua); experiment: as above
Source text: as §2

[14] = tested on: cocklebur (common cocklebur, Xanthium strumarium); experiment: Test E pre-/postemergence greenhouse test, plant response rating 0-100; conditions: Preemergence, scale 0 to 100
Outline: as §1

Structure (SMILES): O=Cn1cc(C(=O)c2ccccc2)c(-c2cc(Cl)cc(Cl)c2)n1 [Compound 28]
- Lambsquarters plant response rating ([1]; 31 g ai/ha): 0
- Lambsquarters plant response rating ([1]; 62 g ai/ha): 95
- Lambsquarters plant response rating ([1]; 125 g ai/ha): 100
- Lambsquarters plant response rating ([1]; 250 g ai/ha): 100
- Lambsquarters plant response rating ([1]; 500 g ai/ha): 100
- Nightshade plant response rating ([2]; 31 g ai/ha): 0
- Nightshade plant response rating ([2]; 62 g ai/ha): 0
- Nightshade plant response rating ([2]; 125 g ai/ha): 0
- Nightshade plant response rating ([2]; 250 g ai/ha): 0
- Nightshade plant response rating ([2]; 500 g ai/ha): 0

Structure (SMILES): Clc1cc(Cl)cc(-c2n[nH]cc2C(=NN2CCCC2)c2ccccc2)c1 [Compound 30, N-[[3-(3,5-dichlorophenyl)-1H-pyrazol-4-yl]phenylmethylene]-1-pyrrolidinamine]
- Plant response rating, Lambsquarters ([3]; 16 g ai/ha): 0
- Plant response rating, Lambsquarters ([3]; 31 g ai/ha): 0
- Plant response rating, Lambsquarters ([3]; 62 g ai/ha): 30
- Plant response rating, Lambsquarters ([3]; 125 g ai/ha): 40
- Plant response rating, Lambsquarters ([3]; 250 g ai/ha): 50
- Plant response rating, Windgrass ([4]; 16 g ai/ha): 0
- Plant response rating, Windgrass ([4]; 31 g ai/ha): 0
- Plant response rating, Windgrass ([4]; 62 g ai/ha): 0
- Plant response rating, Windgrass ([4]; 125 g ai/ha): 0
- Plant response rating, Windgrass ([4]; 250 g ai/ha): 0
- Plant response rating, Russian Thistle ([5]; 16 g ai/ha): 0
- Plant response rating, Russian Thistle ([5]; 31 g ai/ha): 10
- Plant response rating, Russian Thistle ([5]; 62 g ai/ha): 20
- Plant response rating, Russian Thistle ([5]; 125 g ai/ha): 40
- Plant response rating, Russian Thistle ([5]; 250 g ai/ha): 50
- Plant response rating, Wheat, Spring ([6]; 16 g ai/ha): 0
- Plant response rating, Wheat, Spring ([6]; 31 g ai/ha): 0
- Plant response rating, Wheat, Spring ([6]; 62 g ai/ha): 0
- Plant response rating, Wheat, Spring ([6]; 125 g ai/ha): 0
- Plant response rating, Wheat, Spring ([6]; 250 g ai/ha): 0
- Plant response rating, Blackgrass ([7]; 16 g ai/ha): 0
- Plant response rating, Blackgrass ([7]; 31 g ai/ha): 0
- Plant response rating, Blackgrass ([7]; 62 g ai/ha): 0
- Plant response rating, Blackgrass ([7]; 125 g ai/ha): 10
- Plant response rating, Blackgrass ([7]; 250 g ai/ha): 10
- Plant response rating, Ryegrass, Italian ([8]; 16 g ai/ha): 0
- Plant response rating, Ryegrass, Italian ([8]; 31 g ai/ha): 0
- Plant response rating, Ryegrass, Italian ([8]; 62 g ai/ha): 0
- Plant response rating, Ryegrass, Italian ([8]; 125 g ai/ha): 0
- Plant response rating, Ryegrass, Italian ([8]; 250 g ai/ha): 10
- Plant response rating, Pigweed ([9]; 16 g ai/ha): 25
- Plant response rating, Pigweed ([9]; 31 g ai/ha): 60
- Plant response rating, Pigweed ([9]; 62 g ai/ha): 70
- Plant response rating, Pigweed ([9]; 125 g ai/ha): 80
- Plant response rating, Pigweed ([9]; 250 g ai/ha): 90
- Plant response rating, Barley, Spring ([10]; 16 g ai/ha): 0
- Plant response rating, Barley, Spring ([10]; 31 g ai/ha): 0
- Plant response rating, Barley, Spring ([10]; 62 g ai/ha): 0
- Plant response rating, Barley, Spring ([10]; 125 g ai/ha): 0
- Plant response rating, Barley, Spring ([10]; 250 g ai/ha): 0
- Plant response rating, Bluegrass ([11]; 16 g ai/ha): 0
- Plant response rating, Bluegrass ([11]; 31 g ai/ha): 0
- Plant response rating, Bluegrass ([11]; 62 g ai/ha): 0
- Plant response rating, Bluegrass ([11]; 125 g ai/ha): 0
- Plant response rating, Bluegrass ([11]; 250 g ai/ha): 0
- Plant response rating, Mustard, Wild ([12]; 16 g ai/ha): 60
- Plant response rating, Mustard, Wild ([12]; 31 g ai/ha): 60
- Plant response rating, Mustard, Wild ([12]; 62 g ai/ha): 60
- Plant response rating, Mustard, Wild ([12]; 125 g ai/ha): 70
- Plant response rating, Mustard, Wild ([12]; 250 g ai/ha): 85
- Plant response rating, Oat, Wild ([13]; 16 g ai/ha): 0
- Plant response rating, Oat, Wild ([13]; 31 g ai/ha): 0
- Plant response rating, Oat, Wild ([13]; 62 g ai/ha): 0
- Plant response rating, Oat, Wild ([13]; 125 g ai/ha): 0
- Plant response rating, Oat, Wild ([13]; 250 g ai/ha): 0

Structure (SMILES): CCn1cc(C(=O)c2ccccc2)c(-c2cc(Cl)cc(Cl)c2)n1 [Compound 31, [3-(3,5-dichlorophenyl)-1-ethyl-1H-pyrazol-4-yl]phenylmethanone]
- Lambsquarters plant response rating ([1]; 62 g ai/ha): 0
- Lambsquarters plant response rating ([1]; 125 g ai/ha): 100
- Lambsquarters plant response rating ([1]; 250 g ai/ha): 100
- Lambsquarters plant response rating ([1]; 500 g ai/ha): 100
- Nightshade plant response rating ([2]; 62 g ai/ha): 0
- Nightshade plant response rating ([2]; 125 g ai/ha): 0
- Nightshade plant response rating ([2]; 250 g ai/ha): 0
- Nightshade plant response rating ([2]; 500 g ai/ha): 50

Structure (SMILES): C#CCn1cc(C(=O)c2ccccc2)c(-c2cc(Cl)cc(Cl)c2)n1 [Compound 39, [3-(3,5-dichlorophenyl)-1-(2-propyn-1-yl)-1H-pyrazol-4-yl]phenylmethanone]
- Lambsquarters plant response rating ([1]; 62 g ai/ha): 90
- Lambsquarters plant response rating ([1]; 125 g ai/ha): 95
- Lambsquarters plant response rating ([1]; 250 g ai/ha): 90
- Lambsquarters plant response rating ([1]; 500 g ai/ha): 100
- Nightshade plant response rating ([2]; 62 g ai/ha): 0
- Nightshade plant response rating ([2]; 125 g ai/ha): 0
- Nightshade plant response rating ([2]; 250 g ai/ha): 100
- Nightshade plant response rating ([2]; 500 g ai/ha): 95
- Plant response rating, Lambsquarters ([3]; 16 g ai/ha): 0
- Plant response rating, Lambsquarters ([3]; 31 g ai/ha): 0
- Plant response rating, Lambsquarters ([3]; 62 g ai/ha): 10
- Plant response rating, Lambsquarters ([3]; 125 g ai/ha): 20
- Plant response rating, Lambsquarters ([3]; 250 g ai/ha): 25
- Plant response rating, Windgrass ([4]; 16 g ai/ha): 0
- Plant response rating, Windgrass ([4]; 31 g ai/ha): 0
- Plant response rating, Windgrass ([4]; 62 g ai/ha): 0
- Plant response rating, Windgrass ([4]; 125 g ai/ha): 0
- Plant response rating, Windgrass ([4]; 250 g ai/ha): 0
- Plant response rating, Russian Thistle ([5]; 16 g ai/ha): 0
- Plant response rating, Russian Thistle ([5]; 31 g ai/ha): 0
- Plant response rating, Russian Thistle ([5]; 62 g ai/ha): 10
- Plant response rating, Russian Thistle ([5]; 125 g ai/ha): 20
- Plant response rating, Russian Thistle ([5]; 250 g ai/ha): 25
- Plant response rating, Wheat, Spring ([6]; 16 g ai/ha): 0
- Plant response rating, Wheat, Spring ([6]; 31 g ai/ha): 0
- Plant response rating, Wheat, Spring ([6]; 62 g ai/ha): 0
- Plant response rating, Wheat, Spring ([6]; 125 g ai/ha): 0
- Plant response rating, Wheat, Spring ([6]; 250 g ai/ha): 0
- Plant response rating, Blackgrass ([7]; 16 g ai/ha): 0
- Plant response rating, Blackgrass ([7]; 31 g ai/ha): 0
- Plant response rating, Blackgrass ([7]; 62 g ai/ha): 0
- Plant response rating, Blackgrass ([7]; 125 g ai/ha): 0
- Plant response rating, Blackgrass ([7]; 250 g ai/ha): 20
- Plant response rating, Ryegrass, Italian ([8]; 16 g ai/ha): 0
- Plant response rating, Ryegrass, Italian ([8]; 31 g ai/ha): 0
- Plant response rating, Ryegrass, Italian ([8]; 62 g ai/ha): 0
- Plant response rating, Ryegrass, Italian ([8]; 125 g ai/ha): 0
- Plant response rating, Ryegrass, Italian ([8]; 250 g ai/ha): 10
- Plant response rating, Pigweed ([9]; 16 g ai/ha): 30
- Plant response rating, Pigweed ([9]; 31 g ai/ha): 30
- Plant response rating, Pigweed ([9]; 62 g ai/ha): 50
- Plant response rating, Pigweed ([9]; 125 g ai/ha): 75
- Plant response rating, Pigweed ([9]; 250 g ai/ha): 80
- Plant response rating, Barley, Spring ([10]; 16 g ai/ha): 0
- Plant response rating, Barley, Spring ([10]; 31 g ai/ha): 0
- Plant response rating, Barley, Spring ([10]; 62 g ai/ha): 0
- Plant response rating, Barley, Spring ([10]; 125 g ai/ha): 0
- Plant response rating, Barley, Spring ([10]; 250 g ai/ha): 0
- Plant response rating, Bluegrass ([11]; 16 g ai/ha): 0
- Plant response rating, Bluegrass ([11]; 31 g ai/ha): 0
- Plant response rating, Bluegrass ([11]; 62 g ai/ha): 0
- Plant response rating, Bluegrass ([11]; 125 g ai/ha): 0
- Plant response rating, Bluegrass ([11]; 250 g ai/ha): 0
- Plant response rating, Mustard, Wild ([12]; 16 g ai/ha): 20
- Plant response rating, Mustard, Wild ([12]; 31 g ai/ha): 20
- Plant response rating, Mustard, Wild ([12]; 62 g ai/ha): 70
- Plant response rating, Mustard, Wild ([12]; 125 g ai/ha): 70
- Plant response rating, Mustard, Wild ([12]; 250 g ai/ha): 80
- Plant response rating, Oat, Wild ([13]; 16 g ai/ha): 0
- Plant response rating, Oat, Wild ([13]; 31 g ai/ha): 0
- Plant response rating, Oat, Wild ([13]; 62 g ai/ha): 0
- Plant response rating, Oat, Wild ([13]; 125 g ai/ha): 0
- Plant response rating, Oat, Wild ([13]; 250 g ai/ha): 0

Structure (SMILES): Cn1cc(C(=O)c2ccccc2)c(-c2cc(Cl)cc(Cl)c2)n1 [Compound 54, [3-(3,5-dichlorophenyl)-1-methyl-1H-pyrazol-4-yl]phenylmethanone]
- Lambsquarters plant response rating ([1]; 125 g ai/ha): 68
- Lambsquarters plant response rating ([1]; 250 g ai/ha): 86
- Plant response rating, Lambsquarters ([1]; 1000 g ai/ha): 99
- Nightshade plant response rating ([2]; 125 g ai/ha): 0
- Nightshade plant response rating ([2]; 250 g ai/ha): 0
- Cocklebur plant response rating ([14]; 125 g ai/ha): 0
- Cocklebur plant response rating ([14]; 250 g ai/ha): 0
